Data reported in ChEMBL document CHEMBL2417447, “Synthesis and binary QSAR study of antitubercular quinolylhydrazides” (2013).
≈ marks a conversion by molar mass, not a printed value.

What was measured:
[1] = test system: Mycobacterium tuberculosis; assay: Antimycobacterial activity against Mycobacterium tuberculosis H37Rv ATCC 27294 assessed as growth inhibition at 6.25 ug/ml after 5 to 8 days by microplate alamar blue assay relative to control; type: functional; conditions: read-out: GI
[2] = test system: Mycobacterium tuberculosis; assay: Antitubercular activity against Mycobacterium tuberculosis H37Rv ATCC 27294 after 5 to 8 days by microplate alamar blue assay; type: functional

| SMILES | inhibition of growth at 6.25 µg/mL [1] [%] | MIC [2] [µg/mL] |
| --- | --- | --- |
| Cc1ccc(N/N=C2\C(=O)Nc3c(Cl)ccc(Cl)c3C2=O)cc1 | 11 | > 6.25 |
| CC(=O)c1ccc(N/N=C2\C(=O)Nc3ccc(Cl)cc3C2=O)cc1 | 29 | > 6.25 |
| O=C1Nc2cc([N+](=O)[O-])ccc2C(=O)/C1=N/Nc1ccc(F)cc1 | 100 | < 6.25 |
| O=C1Nc2c(ccc(Cl)c2Cl)C(=O)/C1=N/Nc1ccc([N+](=O)[O-])cc1 | 89 | < 6.25 |
| Cc1cccc(N/N=C2\C(=O)Nc3cc([N+](=O)[O-])ccc3C2=O)c1 | 19 | > 6.25 |
| O=C1Nc2c(ccc(Cl)c2Cl)C(=O)/C1=N/Nc1cccc(Cl)c1 | 82 | < 6.25 |
| O=C1Nc2cc(Cl)ccc2C(=O)/C1=N/Nc1ccc([N+](=O)[O-])cc1 | 1 | > 6.25 |
| O=C1Nc2c(Cl)cccc2C(=O)/C1=N/Nc1ccc(Cl)c(Cl)c1 | 21 | > 6.25 |
| CN1C(=O)/C(=N\Nc2ccc(Cl)c(Cl)c2)C(=O)c2ccccc21 | 10 | > 6.25 |
| O=C1Nc2c(cccc2[N+](=O)[O-])C(=O)/C1=N/Nc1ccc(F)c(Cl)c1 | 85 | < 6.25 |
| O=C1Nc2cc([N+](=O)[O-])ccc2C(=O)/C1=N/Nc1ccc(Cl)c(F)c1 | 70 | < 6.25 |
| CC(=O)c1ccc(N/N=C2\C(=O)Nc3c(cccc3[N+](=O)[O-])C2=O)cc1 | 89 | < 6.25 |
| COc1ccccc1N/N=C1\C(=O)Nc2cc([N+](=O)[O-])ccc2C1=O | 96 | < 6.25 |
| CN1C(=O)/C(=N\Nc2ccc(Cl)cc2)C(=O)c2ccccc21 | 38 | > 6.25 |
| O=C1Nc2ccc(Cl)cc2C(=O)/C1=N/Nc1ccc(Cl)cc1 | 98 | < 6.25 |
| CC(=O)c1ccc(N/N=C2\C(=O)Nc3cc(Cl)ccc3C2=O)cc1 | 6 | > 6.25 |
| Cc1cccc(N/N=C2\C(=O)Nc3c(ccc(Cl)c3Cl)C2=O)c1 | 62 | < 6.25 |
| Cc1ccc2c(c1)NC(=O)/C(=N\Nc1ccccc1Cl)C2=O | 31 | > 6.25 |
| O=C1Nc2c(ccc(Cl)c2Cl)C(=O)/C1=N/Nc1cccc(F)c1 | 80 | < 6.25 |
| COc1ccc(N/N=C2\C(=O)Nc3cc(Cl)ccc3C2=O)cc1 | 4 | > 6.25 |
| Cc1cccc(N/N=C2\C(=O)Nc3cc(C)ccc3C2=O)c1 | 76 | < 6.25 |
| O=C1Nc2cc(Cl)ccc2C(=O)/C1=N/Nc1ccccc1 | 76 | < 6.25 |
| O=C1Nc2c(ccc(Cl)c2Cl)C(=O)/C1=N/Nc1ccccc1 | 85 | < 6.25 |
| COc1ccc(N/N=C2\C(=O)Nc3c(cccc3[N+](=O)[O-])C2=O)cc1 | 37 | > 6.25 |
| O=C1Nc2ccc(Cl)cc2C(=O)/C1=N/Nc1cccc([N+](=O)[O-])c1 | 96 | < 6.25 |

| SMILES | inhibition of growth at 6.25 µg/mL [1] [%] | MIC [2] [µg/mL] |
| --- | --- | --- |
| O=C1Nc2c(Cl)cccc2C(=O)/C1=N/Nc1ccccc1Cl | 7 | > 6.25 |
| CC(=O)c1ccc(N/N=C2/C(=O)c3ccccc3N(C)C2=O)cc1 | 20 | > 6.25 |
| O=C1Nc2ccccc2C(=O)/C1=N/Nc1cccc(Cl)c1 | 41 | > 6.25 |
| COc1ccc(N/N=C2\C(=O)Nc3ccc(Cl)cc3C2=O)c(C)c1 | 12 | > 6.25 |
| O=C1Nc2c(cccc2[N+](=O)[O-])C(=O)/C1=N/Nc1ccccc1[N+](=O)[O-] | 80 | < 6.25 |
| Cc1c(Cl)cccc1N/N=C1\C(=O)Nc2c(cccc2[N+](=O)[O-])C1=O | 56 | < 6.25 |
| CO[C@H]1/C=C/O[C@@]2(C)Oc3c(C)c(O)c4c(O)c(c(/C=N/N5CCN(C)CC5)c(O)c4c3C2=O)NC(=O)/C(C)=C\C=C\[C@H](C)[C@H](O)[C@@H](C)[C@@H](O)[C@@H](C)[C@H](OC(C)=O)[C@@H]1C [RIFAMPIN] | 97 | 0.015 (≈ 0.0182 µM) |
| O=C1Nc2c(cccc2[N+](=O)[O-])C(=O)/C1=N/Nc1cccc([N+](=O)[O-])c1 | 60 | < 6.25 |
| O=C1Nc2cc(Cl)ccc2C(=O)/C1=N/Nc1cccc(Cl)c1 | 47 | > 6.25 |
| CC(=O)c1ccc(N/N=C2\C(=O)Nc3c(ccc(Cl)c3Cl)C2=O)cc1 | 98 | < 6.25 |
| Cc1ccc(N/N=C2\C(=O)Nc3c(Cl)cccc3C2=O)cc1 | 34 | > 6.25 |
| O=C1Nc2c(cccc2[N+](=O)[O-])C(=O)/C1=N/Nc1cccc(Cl)c1 | 82 | < 6.25 |
| O=C1Nc2cc([N+](=O)[O-])ccc2C(=O)/C1=N/Nc1ccc(Br)cc1 | 100 | < 6.25 |
| O=C1Nc2ccc(Cl)cc2C(=O)/C1=N/Nc1ccc(Cl)c(Cl)c1 | 95 | < 6.25 |
| O=C1Nc2cc([N+](=O)[O-])ccc2C(=O)/C1=N/Nc1ccccc1-c1ccccc1 | 100 | < 6.25 |
| O=C1Nc2c(cccc2[N+](=O)[O-])C(=O)/C1=N/Nc1ccc([N+](=O)[O-])cc1 | 65 | < 6.25 |
| O=C1Nc2ccc(Cl)cc2C(=O)/C1=N/Nc1ccc(F)cc1 | 71 | < 6.25 |
| O=C1Nc2cc(Cl)ccc2C(=O)/C1=N/Nc1ccc(F)cc1 | 50 | < 6.25 |
| Cc1ccc(N/N=C2\C(=O)Nc3c(ccc(Cl)c3Cl)C2=O)cc1 | 54 | < 6.25 |
| Cc1c(Cl)cccc1N/N=C1\C(=O)Nc2cc([N+](=O)[O-])ccc2C1=O | 98 | < 6.25 |
| O=C1Nc2c(cccc2[N+](=O)[O-])C(=O)/C1=N/Nc1ccccc1-c1ccccc1 | 35 | > 6.25 |
| Cc1cccc(C)c1N/N=C1\C(=O)Nc2c(cccc2[N+](=O)[O-])C1=O | 22 | > 6.25 |
| O=C1Nc2ccc(Cl)cc2C(=O)/C1=N/Nc1ccccc1[N+](=O)[O-] | 64 | < 6.25 |
| COc1ccc(N/N=C2\C(=O)c3cccc([N+](=O)[O-])c3N(C)C2=O)c(C)c1 | 40 | > 6.25 |
| O=C1Nc2c(Cl)ccc(Cl)c2C(=O)/C1=N/Nc1ccc(F)cc1 | 80 | < 6.25 |

| SMILES | inhibition of growth at 6.25 µg/mL [1] [%] | MIC [2] [µg/mL] |
| --- | --- | --- |
| Cc1cccc(N/N=C2\C(=O)Nc3c(cccc3[N+](=O)[O-])C2=O)c1 | 95 | < 6.25 |
| COc1ccc(N/N=C2\C(=O)Nc3c(Cl)ccc(Cl)c3C2=O)c(C)c1 | 40 | > 6.25 |
| O=C1Nc2cc([N+](=O)[O-])ccc2C(=O)/C1=N/Nc1cccc(Cl)c1Cl | 21 | > 6.25 |
| O=C1Nc2ccccc2C(=O)/C1=N/Nc1ccccc1 | 97 | < 6.25 |
| COc1ccc(N/N=C2\C(=O)Nc3c(Cl)ccc(Cl)c3C2=O)cc1 | 36 | > 6.25 |
| CC(=O)c1ccc(N/N=C2\C(=O)Nc3c(Cl)cccc3C2=O)cc1 | 24 | > 6.25 |
| CN1C(=O)/C(=N\Nc2ccc([N+](=O)[O-])cc2)C(=O)c2ccccc21 | 20 | > 6.25 |
| Cc1cccc(N/N=C2\C(=O)Nc3c(C)cccc3C2=O)c1 | 31 | > 6.25 |
| Cc1cccc(N/N=C2\C(=O)Nc3c(cccc3[N+](=O)[O-])C2=O)c1C | 48 | > 6.25 |
| O=C1Nc2c(Cl)cccc2C(=O)/C1=N/Nc1cccc([N+](=O)[O-])c1 | 24 | > 6.25 |
| COc1ccc(N/N=C2\C(=O)Nc3c(ccc(Cl)c3Cl)C2=O)cc1 | 14 | > 6.25 |
| Cc1ccccc1N/N=C1/C(=O)c2ccccc2N(C)C1=O | 97 | < 6.25 |
| COc1ccccc1N/N=C1\C(=O)Nc2c(cccc2[N+](=O)[O-])C1=O | 32 | > 6.25 |
| Cc1ccc(N/N=C2\C(=O)Nc3cc([N+](=O)[O-])ccc3C2=O)cc1 | 92 | < 6.25 |
| O=C1Nc2c(cccc2[N+](=O)[O-])C(=O)/C1=N/Nc1ccc(Cl)c(Cl)c1 | 79 | < 6.25 |
| Cc1cccc(C)c1N/N=C1\C(=O)Nc2ccc(Cl)cc2C1=O | 13 | > 6.25 |
| O=C1Nc2c(Cl)ccc(Cl)c2C(=O)/C1=N/Nc1cccc(Cl)c1 | 32 | > 6.25 |
| O=C1Nc2c(ccc(Cl)c2Cl)C(=O)/C1=N/Nc1cccc([N+](=O)[O-])c1 | 27 | > 6.25 |
| O=C1Nc2c(cccc2[N+](=O)[O-])C(=O)/C1=N/Nc1ccc(F)cc1 | 46 | > 6.25 |
| O=C1Nc2c(cccc2[N+](=O)[O-])C(=O)/C1=N/Nc1ccccc1 | 99 | < 6.25 |
| COc1ccc(N/N=C2\C(=O)Nc3c(cccc3[N+](=O)[O-])C2=O)c(C)c1 | 45 | > 6.25 |
| O=C1Nc2ccc(Cl)cc2C(=O)/C1=N/Nc1ccc([N+](=O)[O-])cc1 | 91 | < 6.25 |
| O=C1Nc2c(Cl)cccc2C(=O)/C1=N/Nc1ccccc1 | 100 | < 6.25 |
| CN1C(=O)/C(=N\Nc2ccccc2[N+](=O)[O-])C(=O)c2ccccc21 | 94 | < 6.25 |
| Cc1cccc2c1NC(=O)/C(=N\Nc1cccc(Cl)c1)C2=O | 39 | > 6.25 |
